From patent US20230116972A1, “CD38 MODULATORS AND METHODS OF USE THEREOF” (Cytokinetics, Inc., priority 2021, published 2023)

How the values were obtained:
human CD38 = molecular target: T1, human CD38 (Homo sapiens, UniProt P28907); assay: human recombinant CD38 enzyme assay (hydrolysis of NAD+); type: biochemical; conditions: human recombinant CD38, 0.4 nM enzyme, 62.5 μM NAD+; read-out: hCD38 BioChem IC50
T1 sequence (P28907 1-300): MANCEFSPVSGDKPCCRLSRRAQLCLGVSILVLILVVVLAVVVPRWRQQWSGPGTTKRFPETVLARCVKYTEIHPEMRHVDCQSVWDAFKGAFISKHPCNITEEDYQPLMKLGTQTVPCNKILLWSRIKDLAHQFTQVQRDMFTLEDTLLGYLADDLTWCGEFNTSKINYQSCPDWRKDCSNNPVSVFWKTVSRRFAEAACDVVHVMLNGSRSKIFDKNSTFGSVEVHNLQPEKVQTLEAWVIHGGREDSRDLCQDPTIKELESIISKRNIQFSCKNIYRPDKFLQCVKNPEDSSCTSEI
In short: (§1)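 Recombinant human or mouse CD38 hydrolyzing NAD+ in a cell-free buffered system. Dose-responses were run for 60 min at ambient temperature. Remaining NAD+ was converted to NADH by alcohol dehydrogenase, which drove diaphorase reduction of resazurin to resorufin, read at 540/590 nm.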

mouse CD38 = molecular target: T2, mouse CD38 (Mus musculus, UniProt P56528); assay: mouse recombinant CD38 enzyme assay (hydrolysis of NAD+); type: biochemical; conditions: read-out: mCD38 BioChem IC50
T2 sequence (P56528 1-304): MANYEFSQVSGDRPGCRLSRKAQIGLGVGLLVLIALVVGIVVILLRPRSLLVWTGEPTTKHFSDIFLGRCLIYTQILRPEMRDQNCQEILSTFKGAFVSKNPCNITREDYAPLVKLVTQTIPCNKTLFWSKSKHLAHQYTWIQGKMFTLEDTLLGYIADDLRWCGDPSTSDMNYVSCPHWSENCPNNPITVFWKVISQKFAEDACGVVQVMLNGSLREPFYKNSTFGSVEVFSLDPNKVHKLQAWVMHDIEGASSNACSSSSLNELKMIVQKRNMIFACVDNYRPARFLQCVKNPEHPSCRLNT
In short: as §1

[1] = molecular target: T3, endogenous CD38 in HL60 cells (Homo sapiens, UniProt P28907); assay: cellular CD38 assay in HL60 cells (cellular NAD levels); type: cell-based; conditions: all-trans retinoic acid, 24 hours, read-out: hCD38 HL60 ATRA NAD Cell Diaphorase IC50
T3 construct: endogenous in cells; host or cells: HL60 (leukemic cells, treated with all-trans retinoic acid)
T3 sequence (P28907 1-300): T1 sequence (P28907 1-300)
In short: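 HL60 cells (20000/well) were treated with compound in DMSO for 24 h. Cellular NAD was then measured by an enzymatic cycling mix (alcohol dehydrogenase, diaphorase, 40 uM resazurin, 10 uM FMN, 3% ethanol, Triton X-100, pH 8.4).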

Row | IC50 (human CD38) [µM] | IC50 (mouse CD38) [µM] | IC50 [1] [µM] | Compound
1 | 0.0028 | 0.001 | 0.749 | COCCOc1cc(C(=O)Nc2ccc(C(F)(F)F)nc2)nc(-n2ccnc2)c1 [Compound 245, 6-(1H-imidazol-1-yl)-4-(2-methoxyethoxy)-N-(6-(trifluoromethyl)pyridin-3-yl)picolinamide]
2 | 0.0103 | 0.001 | 2.58 | Cn1cncc1-c1nc(C(=O)N[C@H]2CC[C@H](O)CC2)cc(C2CCC(F)(F)CC2)n1 [Compound 288, 6-(4,4-difluorocyclohexyl)-N-((1r,4r)-4-hydroxycyclohexyl)-2-(1-methyl-1H-imidazol-5-yl)pyrimidine-4-carboxamide]
3 | 0.004 | 0.013 | 0.369 | Cn1cncc1-c1cncc(C(=O)Nc2ccc(C(F)(F)F)nc2)n1 [Compound 90, 6-(1-methyl-1H-imidazol-5-yl)-N-(6-(trifluoromethyl)pyridin-3-yl)pyrazine-2-carboxamide]
4 | 0.044 | 0.011 | 4 | C[C@H]1CC[C@H](NC(=O)c2cc(C(F)(F)F)nc(-n3ccnc3)n2)CC1 [Compound 164, 2-(1H-imidazol-1-yl)-N-((1r,4r)-4-methylcyclohexyl)-6-(trifluoromethyl)pyrimidine-4-carboxamide]
5 | 0.207 | 0.0587 | 5.11 | CC(C)(O)[C@H]1CC[C@H](NC(=O)c2nccc(-n3ccnc3)n2)CC1 [Compound 251, N-((1r,4r)-4-(2-hydroxypropan-2-yl)cyclohexyl)-4-(1H-imidazol-1-yl)pyrimidine-2-carboxamide]
6 | 0.091 | 0.017 | 3.29 | COCCO[C@H]1CC[C@H](NC(=O)c2cccc(-n3ccnc3)n2)CC1 [Compound 14, 6-(1H-imidazol-1-yl)-N-(4-(2-methoxyethoxy)cyclohexyl)picolinamide]
7 | 0.562 | 0.138 | 10.1 | O=C(N[C@H]1CC[C@H](C(F)F)CC1)c1ccnc(-c2cncs2)n1 [Compound 87, N-((1r,4r)-4-(difluoromethyl)cyclohexyl)-2-(thiazol-5-yl)pyrimidine-4-carboxamide]
8 | 0.271 | 0.161 | 10.6 | O=C(N[C@H]1CC[C@](O)(c2ccccc2)CC1)c1nccc(-n2ccnc2)n1 [Compound 260, N-((1s,4s)-4-hydroxy-4-phenylcyclohexyl)-4-(1H-imidazol-1-yl)pyrimidine-2-carboxamide]
9 | 0.0612 | 0.0336 | 3.13 | O=C(N[C@H]1C[C@H](c2ccc(F)cc2F)C1)c1nccc(-n2ccnc2)n1 [Compound 239, N-((1r,3r)-3-(2,4-difluorophenyl)cyclobutyl)-4-(1H-imidazol-1-yl)pyrimidine-2-carboxamide]
10 | 0.002 | 0.005 | 0.187 | O=C(Nc1ccc(C(F)F)nc1)c1ccnc(-n2ccnc2)n1 [Compound 93, N-(6-(difluoromethyl)pyridin-3-yl)-2-(1H-imidazol-1-yl)pyrimidine-4-carboxamide]
11 | 0.014 | 0.001 | 1.97 | CO[C@H]1CC[C@H](NC(=O)c2cc(C(F)(F)F)nc(-c3cncn3C)n2)CC1 [Compound 151, N-((1r,4r)-4-methoxycyclohexyl)-2-(1-methyl-1H-imidazol-5-yl)-6-(trifluoromethyl)pyrimidine-4-carboxamide]
12 | 0.0051 | 0.0426 | 0.865 | COc1ncc(-c2cncn2C)nc1C(=O)Nc1ccc(C(F)(F)F)nc1 [Compound 279, 3-methoxy-6-(1-methyl-1H-imidazol-5-yl)-N-(6-(trifluoromethyl)pyridin-3-yl)pyrazine-2-carboxamide]
13 | 0.0016 | 0.0012 | 0.303 | COc1cc(-n2ccnc2)nc(C(=O)Nc2ccc(C(F)F)nc2)n1 [Compound 210, N-(6-(difluoromethyl)pyridin-3-yl)-4-(1H-imidazol-1-yl)-6-methoxypyrimidine-2-carboxamide]
14 | 0.005 | 0.01 | 0.522 | O=C(Nc1ccc(C(F)(F)F)nc1)c1cncc(-n2ccnc2)n1 [Compound 55, 6-(1H-imidazol-1-yl)-N-(6-(trifluoromethyl)pyridin-3-yl)pyrazine-2-carboxamide]
15 | 0.104 | 0.035 | 8.54 | COCCO[C@H]1CC[C@H](NC(=O)c2nccc(-c3cncn3C)n2)CC1 [Compound 209, N-((1r,4r)-4-(2-methoxyethoxy)cyclohexyl)-4-(1-methyl-1H-imidazol-5-yl)pyrimidine-2-carboxamide]
16 | 0.06 | 0.033 | 1.99 | O=C(N[C@H]1CC[C@H](C(F)F)CC1)c1nccc(-n2ccnc2)n1 [Compound 73, N-((1r,4r)-4-(difluoromethyl)cyclohexyl)-4-(1H-imidazol-1-yl)pyrimidine-2-carboxamide]
17 | 0.0045 | 0.001 | 0.709 | Cn1cncc1-c1nc(C(=O)Nc2ccc(C(F)F)nc2)cc(C2CCOCC2)n1 [Compound 197, N-(6-(difluoromethyl)pyridin-3-yl)-2-(1-methyl-1H-imidazol-5-yl)-6-(tetrahydro-2H-pyran-4-yl)pyrimidine-4-carboxamide]
18 | 0.062 | 0.023 | 1.7 | C[C@H]1CC[C@H](NC(=O)c2nccc(-n3ccnc3)n2)CC1 [Compound 146, 4-(1H-imidazol-1-yl)-N-((1r,4r)-4-methylcyclohexyl)pyrimidine-2-carboxamide]
19 | 0.375 | 0.082 | 11.7 | COc1cc(C(=O)Nc2ccc(C(F)F)nc2)nc(-c2cncs2)c1 [Compound 163, N-(6-(Difluoromethyl)pyridin-3-yl)-4-methoxy-6-(thiazol-5-yl)picolinamide]
20 | 0.003 | 0.001 | 0.718 | O=C(Nc1ccc(C(F)F)nc1)c1cc(C2CC2)nc(-n2ccnc2)n1 [Compound 162, 6-cyclopropyl-N-(6-(difluoromethyl)pyridin-3-yl)-2-(1H-imidazol-1-yl)pyrimidine-4-carboxamide]
21 | 0.009 | 0.005 | 1.09 | Cn1cncc1-c1nc(C(=O)Nc2ccc(C(F)F)nc2)cc(C(C)(C)O)n1 [Compound 159, N-(6-(difluoromethyl)pyridin-3-yl)-6-(2-hydroxypropan-2-yl)-2-(1-methyl-1H-imidazol-5-yl)pyrimidine-4-carboxamide]
22 | 0.0248 | 0.0072 | 3.69 | CO[C@H]1CC[C@H](NC(=O)c2nc(C)cc(-n3ccnc3)n2)CC1 [Compound 207, 4-(1H-imidazol-1-yl)-N-((1r,4r)-4-methoxycyclohexyl)-6-methylpyrimidine-2-carboxamide]
23 | 0.224 | 0.062 | 7.69 | COCCO[C@H]1CC[C@H](NC(=O)c2cccc(-c3cncn3C)n2)CC1 [Compound 65, N-(4-(2-methoxyethoxy)cyclohexyl)-6-(1-methyl-1H-imidazol-5-yl)picolinamide]
24 | 0.115 | 0.055 | 5.56 | Cc1cc(C(=O)Nc2ccc(C(F)F)nc2)nc(-c2cncs2)c1 [Compound 132, N-(6-(difluoromethyl)pyridin-3-yl)-4-methyl-6-(thiazol-5-yl)picolinamide]
